Key:
Assay type in all cases: cell-based
human monocytes = experiment: Cytotoxicity in primary monocytes (Alamar Blue); details: up to 250 μM, 24 h
Protocol: the wound closure was determined as the difference between wound width at times 0 and 72h. This experiment was repeated three times.
Human primary monocytes were isolated from buffy coats of healthy human blood donors and seeded in 24-well plates (500,000 cells/ml in 1ml) for COX-1/2 activity or 96-well plates for cell viability experiments.
Cells were seeded in 96 well plates (5,000 cells/well in 200µl) for cytotoxicity testing (Alamar […]
doses). After 24h, cytotoxicity was evaluated in the wells using the Alamar Blue method. NaF (250µg/ml) was used as a control in this experiment.
Cyclooxygenase (COX) activity
COX1 mediated prostaglandin E2 (PGE2) release. Monocytes were treated with arachidonic […]
were then collected for the determination of PGE2 by enzyme immunoassay (EIA) […]
COX2 mediated prostaglandin E2 (PGE2) release. Monocytes were incubated with LPS (10U/ml) for 24h to induce COX2 protein synthesis. After renewal of medium (serum free), […]
before AA treatment. The activity of COX2 was determined by measuring PGE2 (Cayman) in the supernatants by EIA. Aspirin (10µM) and diclofenac (10µM) were used as control

CCL22 D58A = target: T1, CCL22 D58A (Homo sapiens, UniProt O00626, D58A); experiment: Calcium responses induced by chemokine mutant, neutraligand protocol; details: 10 μM compound, 5 nM chemokine; remaining response
T1 construct: codes for the mature CCL17 or CCL22 with an N-terminal thioredoxin-hexahistidin (TRX- (His)6) tag; TRX-(His)6 (N, cleaved yes); made in house; host or cells: E. coli BL21 (DE3)
Protocol: (§1) Dye loaded cells were placed in the FlexStation 3 (Molecular Devices). Calcium mobilization was measured at 401 and 475 nm emission fluorescence after excitation at 355 nm. For the primary screening, the ligands (50μl of chemokine mixed with DMSO or test compounds) were added to the cells at 40 s, followed by digitonin addition (50μl) at 100 s to the cells. Molecules were screened at a final concentration of 2μg/ml with 5 nM CCL17 or CCL22. […] Raw fluorescence data (at 401 and 475 nm) were exported and the ratio 401/475 was calculated. The calcium response values (height of peak response over baseline) were determined. Hits were selected by comparing the response amplitude at the time of the chemokine addition ± test compound. The Z’ factor[29] was calculated according to the following equation: Z’ = 1-(3SD+ + 3SD−)/|Ave+ − Ave−|, where SD+ and Ave+ are respectively the standard deviation and the mean value of the positive controls (chemokine + DMSO), while SD− and Ave− are respectively the standard deviation and the mean value of the negative controls (HEPES-BSA (0.1%) mixed with DMSO, or cells mixed with C-021). Hit molecules were confirmed by performing concentration-response curves and their half maximal inhibitory concentration (IC50) values were calculated using the Kaleidagraph software.
(§2) and the denaturated chemokines (disulfite bonds reduced by β-mercaptoethanol). The
(§3) chemokine activity was then, tested in the in vitro assays. […]

CCL22 R80N = target: T2, CCL22 R80N (Homo sapiens, UniProt O00626, R80N); experiment: as above; details: 10 μM compound, 5 nM chemokine; remaining response
T2 construct: codes for the mature CCL17 or CCL22 with an N-terminal thioredoxin-hexahistidin (TRX- (His)6) tag; TRX-(His)6 (N, cleaved yes); made in house; host or cells: E. coli BL21 (DE3)
Protocol: as §1, §2, §3

CCL22 W55A = target: T3, CCL22 W55A (Homo sapiens, UniProt O00626, W55A); experiment: as above; details: 10 μM compound, 5 nM chemokine; remaining response
T3 construct: codes for the mature CCL17 or CCL22 with an N-terminal thioredoxin-hexahistidin (TRX- (His)6) tag; TRX-(His)6 (N, cleaved yes); made in house; host or cells: E. coli BL21 (DE3)
Protocol: as §1, §2, §3

CXCL10 = target: T4, CXCL10 (Homo sapiens, UniProt P02778); experiment: Selectivity, neutraligand protocol, EGFP-CXCR3+ HEK cells; details: 10 μM compound, 5 nM CXCL10, EGFP-CXCR3+ HEK cells
T4 construct: (His)6; made in house; host or cells: E. coli BL21 (DE3)
Protocol: (§4) Figure 6 (a) Selectivity of CCL17 and CCL22 neutraligands towards 10 chemokines according to the “neutraligand protocol”. […] Each column represents the mean (block) ± SD (bars) of n = 3 experiments performed in triplicate. *p < 0.05; **p < 0.01; ***p < 0.005 as compared to chemokine + DMSO. (b) Chemokine neutraligands inhibited CCR4 endocytosis induced by CCL22 or CCL17. EGFP-CCR4^+ HEK cells were incubated for 30 min with DMSO or chemokine (100 nM CCL22 or CCL17) in the presence or absence of test compounds. […] Cell surface EGFP-tagged CCR4 receptors were measured by EGFP antibody labeling and flow cytometry analysis. CCR4 internalization was expressed as a percentage of total receptor surface expression calculated using control cells incubated with DMSO (100%). Each column represents the mean (block) ± SD (bars) of n = 3 experiments performed in triplicate. *p < 0.05; **p < 0.01; ***p < 0.005 as compared to chemokine alone. (c,d) Inhibition of CCL17 and CCL22- induced CCR4^+HUT78 T cell chemotaxis by neutraligands. […] The number of migrating cells induced by a chemokine alone was set at 100% migration. The number of migrating cells in the presence of chemokine and compounds were expressed as the corresponding percentages. Results were analyzed by fitting the experimental curves (% of migrating cells vs log compound concentration) using the Kaleidagraph software program, and the corresponding IC50 values were calculated. Means and SD values of triplicates were plotted.
(§5) Human cDNAs encoding CCR4 and CXCR3 receptors were cloned in pIRES plasmid (Clontech) while cDNAs encoding CCR2, CCR5, CXCR2 and CXCR4 receptors were cloned in pCEP4 vector (Life technologies). […] Stably EGFP-CCR4^+ HEK cells were selected for 5 weeks with geneticin (G-418, 600μg/ml), and resulting cell clones were checked by fluorescence microscopy and FACS analysis. […]
as §1, with “nm.” for “nm. For the primary screening, the ligands (50μl of chemokine mixed with DMSO or test compounds) were added to the cells at 40 s, followed by digitonin addition (50μl) at 100 s to the cells. Molecules were screened at a final concentration of 2μg/ml with 5 nM CCL17 or CCL22.”, “Hits were selected by comparing the response amplitude at the time of the chemokine addition ± test compound.” left out

CXCL11 = target: T5, CXCL11 (Homo sapiens, UniProt O14625); experiment: as above; details: 10 μM compound, 5 nM CXCL11, EGFP-CXCR3+ HEK cells
T5 construct: thioredoxin-hexahistidin (TRX-(His)6) with enterokinase site; made in house; host or cells: E. coli BL21 (DE3)
Protocol: as §4, §5
as §1, with “nm.” for “nm. For the primary screening, the ligands (50μl of chemokine mixed with DMSO or test compounds) were added to the cells at 40 s, followed by digitonin addition (50μl) at 100 s to the cells. Molecules were screened at a final concentration of 2μg/ml with 5 nM CCL17 or CCL22.”, “Hits were selected by comparing the response amplitude at the time of the chemokine addition ± test compound.” left out

CXCL12 = target: T6, CXCL12 (Homo sapiens, UniProt P48061); experiment: TRIC-r calcium assay, neutraligand protocol, EGFP-CXCR4+ HEK cells; details: 10 μM compound, 5 nM CXCL12, EGFP-CXCR4+ HEK cells
T6 construct: (His)6; made in house; host or cells: E. coli BL21 (DE3)
T6 sequence (P48061 22-93): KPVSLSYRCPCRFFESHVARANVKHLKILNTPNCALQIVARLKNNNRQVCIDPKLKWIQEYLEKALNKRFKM

T1 sequence (O00626 25-93 D58A): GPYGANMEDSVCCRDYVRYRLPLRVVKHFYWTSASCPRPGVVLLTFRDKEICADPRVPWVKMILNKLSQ
T2 sequence (O00626 25-93 R80N): as the sequence (O00626 25-93 D58A) above, with A34D, R56N counted along it
T3 sequence (O00626 25-93 W55A): as the sequence (O00626 25-93 D58A) above, with W31A, A34D counted along it
T5 sequence (O14625 22-94): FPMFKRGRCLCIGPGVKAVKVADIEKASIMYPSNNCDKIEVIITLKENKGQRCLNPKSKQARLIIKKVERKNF
T4 sequence (P02778 22-98): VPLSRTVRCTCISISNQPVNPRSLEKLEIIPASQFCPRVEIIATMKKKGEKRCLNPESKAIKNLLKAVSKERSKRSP

Compound	cell toxicity on human monocytes (Alamar Blue) (human monocytes)	calcium response induced by CCL22 D58A preincubated with compound (CCL22 D58A)	calcium response induced by CCL22 R80N preincubated with compound (CCL22 R80N)	calcium response induced by CCL22 W55A preincubated with compound (CCL22 W55A)	effect on calcium responses induced by CXCL10 (CXCL10)	effect on calcium responses induced by CXCL11 (CXCL11)	effect on calcium responses induced by CXCL12 (CXCL12)
O=C(OCC(O)CO)c1ccccc1O (centres unmarked) [GPN136, 2,3-dihydroxypropyl 2-hydroxybenzoate]	absence of cell toxicity	76.0 ± 3.0%	100.0 ± 3.0%	46.0 ± 3.0%	no effect	no effect	no effect
CC(C)=CCn1cnc2c1c(=O)n(C)c(=O)n2C [GPN279, 1,3-dimethyl-7-(3-methylbut-2-enyl)-1H-purine-2,6(3H, 7H)-dione]	absence of cell toxicity	neither inhibited WT nor CCL22 mutants	neither inhibited WT nor CCL22 mutants	neither inhibited WT nor CCL22 mutants	no effect	no effect	no effect
